Test results taken from US20250092016A1, “COMPOUNDS AND COMPOSITIONS FOR THE TREATMENT OF CORONAVIRAL RELATED DISEASES” (priority 2021, published 2025).

These compounds were tested against SARS-CoV-2 main protease (M^pro) (Severe acute respiratory syndrome coronavirus 2, UniProt P0DTD1) (assay: Rapid-Fire MS Biochemical Assay measuring Mpro activity (5 nM Mpro)). Conditions: Table 1B, Mpro inhibition, 5 μM substrate peptide, 120 min, read-out: Rapid-Fire Assay IC50.

First: N#C[C@@H]1CN(c2cccc(Cl)n2)C(=O)N1c1cncc2ccccc12 (single isomer, unassigned) [Compound 111b]
Second: Cc1ccc(Cl)cc1N1C[C@H](C#N)N(c2cncc3ccccc23)C1=O (single isomer, unassigned) [Compound 114a]
The IC50 of the first is higher: 200 to 1000 nM for the first, less than 20 nM for the second. The second is the more potent here.

`N#CC1CN(c2ccc(=O)[nH]c2)C(=O)N1c1cncc2ccccc12` (racemic) [Compound 113, 3-(isoquinolin-4-yl)-2-oxo-1-(6-oxo-1,6-dihydropyridin-3-yl)imidazolidine-4-carbonitrile] and `N#C[C@@H]1CN(c2ccc(C(F)F)cc2)C(=O)N1c1cncc2ccccc12` (single isomer, unassigned) [Compound 108b] cannot be ordered by IC50: greater than 1000 nM for the first, greater than 1000 nM for the second.

`N#C[C@H]1CN(c2ccc(OC(F)(F)F)cc2)C(=O)N1c1cncc2ccccc12` (single isomer, unassigned) [Compound 91a] and `COc1cc(C(F)(F)F)ccc1N1C[C@H](C#N)N(c2cncc3ccccc23)C1=O` (single isomer, unassigned) [Compound 12a] cannot be ordered by IC50: less than 20 nM for the first, less than 20 nM for the second.

First: COc1ccc(C(F)(F)F)nc1N1C[C@H](C#N)N(c2cncc3ccccc23)C1=O (single isomer, unassigned) [Compound 47a]
Second: COc1cc(Cl)cnc1N1CC(C#N)N(c2cncc3ccccc23)C1=O (racemic) [Compound 58, 1-(5-chloro-3-methoxypyridin-2-yl)-3-(isoquinolin-4-yl)-2-oxoimidazolidine-4-carbonitrile]
The IC50 of the first is lower: 20 to 200 nM for the first, 200 to 1000 nM for the second. The first is the more potent here.

`Cc1ccc(F)cc1N1C[C@H](C#N)N(c2cncc3ccccc23)C1=O` (single isomer, unassigned) [Compound 21a] and `N#C[C@H]1CN(c2cc(F)ccc2F)C(=O)N1c1cncc2ccccc12` (single isomer, unassigned) [Compound 109a] cannot be ordered by IC50: less than 20 nM for the first, less than 20 nM for the second.

First: N#C[C@H]1CN(C2CC3(CC3)C2)C(=O)N1c1cncc2ccccc12 (single isomer, unassigned) [Compound 125a]
Second: N#C[C@@H]1CN(C2CCC(F)(F)C2)C(=O)N1c1cncc2ccccc12 (single isomer, unassigned) [Compound 141c, (S)-1-((S)-3,3-difluorocyclopentyl)-3-(isoquinolin-4-yl)-2-oxoimidazolidine-4-carbonitrile or (S)-1-((R)-3,3-difluorocyclopentyl)-3-(isoquinolin-4-yl)-2-oxoimidazolidine-4-carbonitrile]
The IC50 of the first is lower: less than 20 nM for the first, greater than 1000 nM for the second.

First: CC(C)[C@H]1C[C@@H](N2C[C@H](C#N)N(c3cncc4ccccc34)C2=O)C1 [Compound 123a, (R)-1-((1s,3S)-3-isopropylcyclobutyl)-3-(isoquinolin-4-yl)-2-oxoimidazolidine-4-carbonitrile]
Second: N#C[C@@H]1CN([C@@H]2CCN(CCO)C2)C(=O)N1c1cncc2ccccc12 (single isomer, unassigned) [Compound 46b]
The IC50 of the first is lower: less than 20 nM for the first, greater than 1000 nM for the second.

Going from `COc1cc(Cl)ccc1N1C[C@H](C#N)N(c2cncc3ccccc23)C1=O` (single isomer, unassigned) [Compound 103a] to `COc1ccc(C#N)cc1N1C[C@@H](C#N)N(c2cncc3ccccc23)C1=O` (single isomer, unassigned) [Compound 15b], the IC50 rises from less than 20 nM to greater than 1000 nM.

Going from `N#C[C@@H]1CN(c2cccc(C(F)F)c2)C(=O)N1c1cncc2ccccc12` (single isomer, unassigned) [Compound 22b] to `N#C[C@H]1CN(c2cnc(C(F)(F)F)c(F)c2)C(=O)N1c1cncc2ccccc12` (single isomer, unassigned) [Compound 77a], the IC50 falls from greater than 1000 nM to less than 20 nM. The second is the more potent here.

First: N#Cc1cc(C(F)(F)F)ncc1N1C[C@H](C#N)N(c2cncc3ccccc23)C1=O (single isomer, unassigned) [Compound 18a]
Second: Cc1ncc(C(F)(F)F)cc1N1C[C@@H](C#N)N(c2cncc3ccccc23)C1=O (single isomer, unassigned) [Compound 88b]
The IC50 of the first is lower: less than 20 nM for the first, greater than 1000 nM for the second. The first is the more potent here.

`COc1ccc(C(F)(F)F)cc1N1C[C@H](C#N)N(c2cncc3ccc(S(C)(=O)=O)cc23)C1=O` (single isomer, unassigned) [Compound 38a] gave an IC50 of less than 20 nM.
